Measured values as given in ChEMBL document CHEMBL1141545, “Synthesis and biological evaluation of 3,5-diaminoindazoles as cyclin-dependent kinase inhibitors” (Bioorg Med Chem Lett, 2008).

What was measured:
[1] = Selectivity for CDK2 over CDK1
[2] = biological target: Cyclin-dependent kinase 1 (Homo sapiens, UniProt P06493); assay: Inhibition of CDK1
[3] = biological target: Cyclin-dependent kinase 4 (Homo sapiens, UniProt P11802); assay: Inhibition of CDK4
[4] = biological target: Cyclin-dependent kinase 2 (Homo sapiens, UniProt P24941); assay: Inhibition of CDK2
HCT-116 = assay: cells; settings: Homo sapiens, HCT-116, 48 h
Description: Antiproliferative activity against human HCT116 cells after 48 hrs

A549 = assay: Antiproliferative activity against human A549 cells after 48 hrs; format: functional, cell-based; settings: A549, 48 h
EJ = assay: Antiproliferative activity against human EJ cells after 48 hrs; format: functional, cell-based
SW-620 = assay: Antiproliferative activity against human SW620 cells after 48 hrs; format: functional, cell-based; settings: SW-620, 48 h

Cyclin-dependent kinase 4, sequence (P11802 whole entry): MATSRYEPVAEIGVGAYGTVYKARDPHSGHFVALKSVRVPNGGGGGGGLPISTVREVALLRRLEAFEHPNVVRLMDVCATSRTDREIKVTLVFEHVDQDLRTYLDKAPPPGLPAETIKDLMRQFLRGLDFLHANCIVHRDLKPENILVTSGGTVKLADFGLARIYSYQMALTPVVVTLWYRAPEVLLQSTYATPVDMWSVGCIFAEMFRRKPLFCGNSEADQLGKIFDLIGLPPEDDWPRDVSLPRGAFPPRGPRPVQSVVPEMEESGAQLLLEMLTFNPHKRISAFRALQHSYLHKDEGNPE
Cyclin-dependent kinase 1, sequence (P06493 whole entry): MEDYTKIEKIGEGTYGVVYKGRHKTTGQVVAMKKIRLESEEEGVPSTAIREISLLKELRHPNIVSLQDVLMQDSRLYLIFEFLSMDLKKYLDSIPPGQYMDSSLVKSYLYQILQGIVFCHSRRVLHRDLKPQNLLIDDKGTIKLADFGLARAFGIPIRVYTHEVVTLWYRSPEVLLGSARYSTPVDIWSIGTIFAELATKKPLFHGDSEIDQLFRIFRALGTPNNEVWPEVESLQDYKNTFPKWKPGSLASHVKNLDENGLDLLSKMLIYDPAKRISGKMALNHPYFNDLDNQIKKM

| SMILES | Ratio IC50 [1] | IC50 [2] [nM] | IC50 [3] [nM] | IC50 [4] [nM] | IC50 (HCT-116) [nM] | IC50 (A549) [nM] | IC50 (EJ) [nM] | IC50 (SW-620) [nM] |
| --- | --- | --- | --- | --- | --- | --- | --- | --- |
| O=C(Cc1cccc(Br)c1)Nc1n[nH]c2ccc(N3CCCS3(=O)=O)cc12 | < 10 | 47 | 1800 | 7 | – | – | – | – |
| CCN(CC)c1ccc(CC(=O)Nc2n[nH]c3ccc(N4CCCS4(=O)=O)cc23)cc1 | – | 60 | > 1000 | 40 | 220 | 50 | 55 | – |
| O=C(Cc1ccccc1)Nc1n[nH]c2ccc(N3CCCS3(=O)=O)cc12 | – | – | 3700 | 36 | 4600 | – | 3600 | 2200 |
| O=C(Cc1ccc(-c2ccccc2)cc1)Nc1n[nH]c2ccc(N3CCCS3(=O)=O)cc12 | – | 42 | 2200 | 14 | 180 | 55 | 52 | 40 |
| O=C(Cc1ccc(O)cc1)Nc1n[nH]c2ccc(N3CCCS3(=O)=O)cc12 | – | 28 | 1750 | 9 | 6530 | – | 5200 | 3830 |
| O=C(Cc1ccccc1Cl)Nc1n[nH]c2ccc(N3CCCS3(=O)=O)cc12 | < 10 | 80 | 890 | 24 | – | – | – | – |
| O=C(Cc1ccc(F)cc1)Nc1n[nH]c2ccc(N3CCCS3(=O)=O)cc12 | < 10 | 50 | 3000 | 20 | – | – | – | – |
| CSc1ccc(CC(=O)Nc2n[nH]c3ccc(N4CCCS4(=O)=O)cc23)cc1 | – | 40 | 1300 | 10 | 820 | 2470 | 280 | 150 |
| O=C(Cc1ccc2ccccc2c1)Nc1n[nH]c2ccc(N3CCCS3(=O)=O)cc12 | < 10 | 40 | 1600 | 9 | 310 | 90 | 120 | 80 |
| CS(=O)(=O)c1ccc(CC(=O)Nc2n[nH]c3ccc(N4CCCS4(=O)=O)cc23)cc1 | – | 200 | 1400 | 22 | 48000 | – | 35000 | – |
| CN(C)c1ccc(CC(=O)Nc2n[nH]c3ccc(N4CCCS4(=O)=O)cc23)cc1 | < 10 | 28 | 210 | 10 | 830 | 350 | – | – |
| O=C(Cc1ccc(Cl)cc1)Nc1n[nH]c2ccc(N3CCCS3(=O)=O)cc12 | – | 12 | 2000 | 10 | 1230 | 1500 | 930 | 930 |
| Cc1ccc(CC(=O)Nc2n[nH]c3ccc(N4CCCS4(=O)=O)cc23)cc1 | < 10 | 40 | 1800 | 7 | 1770 | 2570 | 1670 | 1560 |
| CCCN(CCC)c1ccc2[nH]nc(NC(=O)Cc3ccccc3)c2c1 | – | – | – | 1800 | – | – | – | – |
| O=C(Cc1ccccc1)Nc1n[nH]c2ccc(N3C(=O)CNC3=O)cc12 | – | – | – | 2000 | – | – | – | – |
| CCN(CC)c1ccc2[nH]nc(NC(=O)Cc3ccccc3)c2c1 | – | – | – | 200 | – | – | – | – |
| O=C(Cc1ccc(-c2ccncc2)cc1)Nc1n[nH]c2ccc(N3CCCS3(=O)=O)cc12 | < 10 | 60 | 1330 | 30 | 2500 | 1400 | 1050 | – |
| Cc1cccc(CC(=O)Nc2n[nH]c3ccc(N4CCCS4(=O)=O)cc23)c1 | < 10 | 50 | 4000 | 10 | – | – | – | – |
| O=C(Cc1ccccc1)Nc1n[nH]c2ccc(N3CCCC3=O)cc12 | – | – | – | 170 | – | – | – | – |
| Nc1ccc(CC(=O)Nc2n[nH]c3ccc(N4CCCS4(=O)=O)cc23)cc1 | < 10 | 60 | 2200 | 16 | – | – | – | – |
| O=C(Cc1ccccc1)Nc1n[nH]c2ccc(N3CCCCC3=O)cc12 | – | – | – | 7100 | – | – | – | – |
| O=C(Cc1ccc(N2CCCCC2)cc1)Nc1n[nH]c2ccc(N3CCCS3(=O)=O)cc12 | – | 150 | 750 | – | 1200 | 1100 | 980 | – |
| CCNc1ccc2[nH]nc(NC(=O)Cc3ccccc3)c2c1 | – | – | – | 500 | – | – | – | – |
| O=C(Cc1cccc(F)c1)Nc1n[nH]c2ccc(N3CCCS3(=O)=O)cc12 | < 10 | 30 | 710 | 10 | – | – | – | – |
| O=C(Cc1ccc(Br)cc1)Nc1n[nH]c2ccc(N3CCCS3(=O)=O)cc12 | < 10 | 22 | 2000 | 7 | 1400 | 3870 | 1570 | 2000 |
| O=C(Cc1cccc2ccccc12)Nc1n[nH]c2ccc(N3CCCS3(=O)=O)cc12 | < 10 | 67 | 3000 | 20 | 2300 | 1400 | 1300 | 930 |
| CCCCN(CCCC)c1ccc2[nH]nc(NC(=O)Cc3ccccc3)c2c1 | – | – | – | > 100000 | – | – | – | – |
| O=C(Cc1ccccc1)Nc1n[nH]c2ccc([N+](=O)[O-])cc12 | – | – | – | 2000 | – | – | – | – |
| O=C(Cc1cccc(Cl)c1)Nc1n[nH]c2ccc(N3CCCS3(=O)=O)cc12 | < 10 | 34 | 1050 | 10 | – | – | – | – |
